According to patent US20070037883A1, “Therapeutic compositions” (priority 2003, published 2007):
Entries after “also recorded” stand apart in the source; their conditions may differ.

Legend:
[1] = target: T1, Nox4-containing NADPH-oxidase in mouse endothelium (Mus musculus, UniProt Q9JHI8); experiment: NADPH-driven NADPH-oxidase activity in mouse endothelium; type: cell-based; details: suramin ≦100 μM
T1 construct: Nox4-containing NADPH-oxidase in mouse vascular smooth muscle cells (VSMC, a) and endothelium; endogenous in cells; host or cells: mouse endothelium (preparation not described)
T1 sequence (Q9JHI8 1-578): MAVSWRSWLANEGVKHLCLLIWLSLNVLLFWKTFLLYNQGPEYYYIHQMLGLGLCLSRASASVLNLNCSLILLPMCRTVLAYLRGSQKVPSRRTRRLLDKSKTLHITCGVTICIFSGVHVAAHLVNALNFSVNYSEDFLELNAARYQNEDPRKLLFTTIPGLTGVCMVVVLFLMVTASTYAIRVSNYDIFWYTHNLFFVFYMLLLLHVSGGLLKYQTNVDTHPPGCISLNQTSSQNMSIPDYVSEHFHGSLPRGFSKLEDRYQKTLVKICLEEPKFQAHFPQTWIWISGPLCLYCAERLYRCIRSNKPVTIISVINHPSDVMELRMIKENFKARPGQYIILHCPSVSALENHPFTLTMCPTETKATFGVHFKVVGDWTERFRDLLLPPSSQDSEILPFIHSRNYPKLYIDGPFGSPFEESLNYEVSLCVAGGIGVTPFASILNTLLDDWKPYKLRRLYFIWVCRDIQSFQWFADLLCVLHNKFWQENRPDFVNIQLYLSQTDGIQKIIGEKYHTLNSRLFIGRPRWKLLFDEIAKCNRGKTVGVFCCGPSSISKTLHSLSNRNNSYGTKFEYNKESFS
T1 sequence (Q61462 1-192 partner): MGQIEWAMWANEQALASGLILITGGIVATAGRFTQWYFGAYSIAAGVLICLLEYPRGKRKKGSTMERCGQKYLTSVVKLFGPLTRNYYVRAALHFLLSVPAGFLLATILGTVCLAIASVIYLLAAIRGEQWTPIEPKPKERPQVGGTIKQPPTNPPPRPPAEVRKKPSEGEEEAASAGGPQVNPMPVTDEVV

[2] = test system: rat basilar artery; experiment: Acetylcholine-induced dilator responses of the rat basilar artery in vivo after subarachnoid haemorrhage; details: suramin 300 mg/kg s.c. over 7 days, 2 days after SAH, FIG. 14
Method: Subarachnoid hemorrhage: On Day 0, rats are briefly anaesthetized (pentobarbital 50 mg/kg ip) and an osmotic minipump containing either saline or suramin is implanted subcutaneously. The dose rate of suramin is 300 mg/kg per 7 days. On Day 5, rats are again anaesthetized and 0.3 ml of blood is withdrawn from a femoral artery and injected into the cerebrospinal fluid around the ventral surface of the brain via the cisterna magna. In some control rats, saline is injected into the cerebrospinal fluid instead of arterial blood. The rat is allowed to recover for a further 2 days, and is then again anaesthetized on Day 7 for study.
Measurement of cerebral artery responses in vivo: Rats are anaesthetized with pentbarbital (50 mg/kg ip) and anaesthesia is maintained with supplemental pentobarbital (10-20 mg/kg per h iv). […] Basilar artery diameter is continuously measured using a computer-based image tracking device. The endothelium-dependent vasodilator acetylcholine is superfused over the basilar artery at a steady concentration of 1 micromolar for 3-5 minutes, and the increase in diameter is measured. The concentration of acetylcholine is then increased to 10, and then 100 micromolar in a similar manner and increases in diameter recorded. […] Responses to acetylcholine are then expressed as a percent of this maximum response. […]

With `Cc1ccc(C(=O)Nc2ccc(S(=O)(=O)O)c3cc(S(=O)(=O)O)cc(S(=O)(=O)O)c23)cc1NC(=O)c1cccc(NC(=O)Nc2cccc(C(=O)Nc3cc(C(=O)Nc4ccc(S(=O)(=O)O)c5cc(S(=O)(=O)O)cc(S(=O)(=O)O)c45)ccc3C)c2)c1` [suramin] the “inhibition of 100 μM NADPH-driven activity of Nox4-containing NADPH-oxidase in endothelium” value [1] was “fully inhibits” and the “response of basilar artery diameter to acetylcholine in vivo after SAH” value [2] was “not impaired; also recorded: prevents any significant reduction”.
